# Molecular target: wt human LRRK2, catalytic site (Homo sapiens (Human), UniProt Q5S007)
# Experiment: TR-FRET LanthaScreen Tb Kinase Activity Assay (LRRK2 kinase inhibition)
# Assay type: biochemical
# Settings: 2 nM wt human LRRK2, 400 nM fluorescein-ERM (LRRKtide) peptide, 38 μM ATP, 120 minutes at room temperature
# Protocol: The compounds in Table 1 were tested for their inhibitory effect on LRRK2 kinase according to the following procedures.
# The protocol for basic TR-FRET LanthaScreen Tb Kinase Activity Assay inhibitor studies were as follows. LanthaScreen Kinase Activity Assays (ThermoFisher/USA) to evaluate inhibitors were performed by addition of 100 nL of test compound in corresponding DMSO dilutions/5 μL of kinase/fluorescein-ERM(LRRKtide) peptide mixture, 5 μL of ATP into 384 well small volume plates. After incubation for 120 minutes at room temperature, the detection reagents containing Tb-anti-pLRRKtide antibody were added to monitor phosphrylation level of peptide. Then, after 60 min minutes incubation at room temperature plates were read in Envision. Data analysis of emission ratios was according to LanthaScreen Tb Kinase Activity Assay protocol.
# Kinase and assay components were adjusted to final concentrations according to the kit protocol. For LRRK2: 2 nM wt human LRRK2, catalytic site, catalytic site (ThermoFisher/USA), 400 nM peptide, 38 μM ATP in 1× Kinase Buffer A.
# Basic protocol for TR-FRET LanthaScreen Tb Kinase Activity Assay inhibitor studies involved two steps: • Enzymatic step: Addition of 100 nL of test compound in corresponding DMSO dilutions, 5 μL of kinase/substrate mixture, 5 μL of ATP into 384 well small volume plates. Incubation for 120 minutes at room temperature. • Detection step: Addition of 10 μL EDTA & antibody, read plate after 60 minutes. Data analysis of emission ratios according to KinEASE assay protocol.
# Kinase and assay components were adjusted to final concentrations according to the kit protocol.
# In the table below, activity is provided as follows: +++=IC50 less than 50 nM; ++=IC50 between 50 nM and 200 nM; +=IC50>=200 nM
# Chain of wt human LRRK2, catalytic site (Q5S007 1879-2138): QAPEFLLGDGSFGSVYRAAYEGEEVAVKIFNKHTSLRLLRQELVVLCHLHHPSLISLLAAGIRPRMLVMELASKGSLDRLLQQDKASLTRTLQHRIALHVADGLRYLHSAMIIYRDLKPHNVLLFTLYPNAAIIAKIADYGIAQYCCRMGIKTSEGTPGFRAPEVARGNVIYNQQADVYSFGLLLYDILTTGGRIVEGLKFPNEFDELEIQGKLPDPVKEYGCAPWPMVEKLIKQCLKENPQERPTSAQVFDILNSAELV
row,SMILES,IC50 [µM]
1,"CNc1nc(Nc2ccc3cn[nH]c3c2)ncc1C(F)(F)F [Example 1, N2-(1H-indazol-6-yl)-N4-methyl-5-(trifluoromethyl)pyrimidine-2,4-diamine]",< 0.05
2,CNc1nc(Nc2cc3[nH]ncc3cc2C)ncc1C(F)(F)F [Example 2],< 0.05
3,"CNc1nc(Nc2cc3[nH]ncc3cc2OC)ncc1C(F)(F)F [Example 3, N2-(5-methoxy-1H-indazol-6-yl)-N4-methyl-5-(trifluoromethyl)pyrimidine-2,4-diamine]",< 0.05
4,"CNc1nc(Nc2ccc3cn[nH]c3c2OC)ncc1C(F)(F)F [Example 4, N2-(7-methoxy-1H-indazol-6-yl)-N4-methyl-5-(trifluoromethyl)pyrimidine-2,4-diamine]",0.05 to 0.2
5,"CNc1nc(Nc2ccc3cn[nH]c3c2C)ncc1C(F)(F)F [Example 5, N4-methyl-N2-(7-methyl-1H-indazol-6-yl)-5-(trifluoromethyl)pyrimidine-2,4-diamine]",< 0.05
6,"CNc1nc(Nc2cc(F)c3cn[nH]c3c2)ncc1C(F)(F)F [Example 6, N2-(4-fluoro-1H-indazol-6-yl)-N4-methyl-5-(trifluoromethyl)pyrimidine-2,4-diamine]",< 0.05
7,"CNc1nc(Nc2ccc3c(Br)n[nH]c3c2)ncc1C(F)(F)F [Example 7, N2-(3-bromo-1H-indazol-6-yl)-N4-methyl-5-(trifluoromethyl)pyrimidine-2,4-diamine]",< 0.05
8,"CNc1nc(Nc2ccc3c(C#N)n[nH]c3c2)ncc1C(F)(F)F [Example 8, 6-((4-(methylamino)-5-(trifluoromethyl)pyrimidin-2-yl)amino)-1H-indazole-3-carbonitrile]",≥ 0.2
9,"CNc1nc(Nc2ccc3c(C(=O)N4CCOCC4)n[nH]c3c2)ncc1C(F)(F)F [Example 9, (6-((4-(methylamino)-5-(trifluoromethyl)pyrimidin-2-yl)amino)-1H-indazol-3-yl)(morpholino)methanone]",< 0.05
10,"CNc1nc(Nc2ccc3c(Br)nn(C)c3c2)ncc1C(F)(F)F [Example 10, N^2-(3-bromo-1-methyl-1H-indazol-6-yl)-N^4-methyl-5-(trifluoromethyl) pyrimidine-2,4-diamine]",< 0.05
11,"CNc1nc(Nc2ccc3c(C#N)nn(C)c3c2)ncc1C(F)(F)F [Example 11, 1-methyl-6-((4-(methylamino)-5-(trifluoromethyl)pyrimidin-2-yl)amino)-1H-indazole-3-carbonitrile]",< 0.05
12,"CNc1nc(Nc2ccc3cnn(C)c3c2)ncc1C(F)(F)F [Example 12, N4-methyl-N2-(1-methyl-1H-indazol-6-yl)-5-(trifluoromethyl)pyrimidine-2,4-diamine]",< 0.05
13,"CNc1nc(Nc2cc3c(cnn3C)cc2C)ncc1C(F)(F)F [Example 13, N2-(1,5-dimethyl-1H-indazol-6-yl)-N4-methyl-5-(trifluoromethyl)pyrimidine-2,4-diamine]",< 0.05
14,"CNc1nc(Nc2ccc3cnn(C)c3c2OC)ncc1C(F)(F)F [Example 14, N2-(7-methoxy-1-methyl-1H-indazol-6-yl)-N4-methyl-5-(trifluoromethyl)pyrimidine-2,4-diamine]",0.05 to 0.2
15,"CNc1nc(Nc2ccc3cnn(C)c3c2C)ncc1C(F)(F)F [Example 15, N2-(1,7-dimethyl-1H-indazol-6-yl)-N4-methyl-S-(trifluoromethyl)pyrimidine-2,4-diamine]",0.05 to 0.2
16,"CNc1nc(Nc2ccc3cnn(CC#N)c3c2)ncc1C(F)(F)F [Example 16, 2-(6-((4-(methylamino)-5-(trifluoromethyl)pyrimidin-2-yl)amino)-1H-indazol-1-yl)acetonitrile]",< 0.05
17,"CNc1nc(Nc2ccc3cn(C)nc3c2)ncc1C(F)(F)F [Example 17, N4-methyl-N2-(2-methyl-2H-indazol-6-yl)-5-(trifluoromethyl)pyrimidine-2,4-diamine]",< 0.05
18,"CNc1nc(Nc2cc3nn(C)cc3cc2C)ncc1C(F)(F)F [Example 18, N2-(2,5-dimethyl-2H-indazol-6-yl)-N4-methyl-5-(trifluoromethyl)pyrimidine-2,4-diamine]",0.05 to 0.2
19,"CNc1nc(Nc2ccc3cn(C)nc3c2C)ncc1C(F)(F)F [Example 19, N2-(2,7-dimethyl-2H-indazol-6-yl)-N4-methyl-5-(trifluoromethyl)pyrimidine-2,4-diamine]",< 0.05

row,SMILES,IC50 [µM]
1,"CNc1nc(Nc2ccc3cn(C)nc3c2OC)ncc1C(F)(F)F [Example 20, N2-(7-methoxy-2-methyl-2H-indazol-6-yl)-N4-methyl-5-(trifluoromethyl)pyrimidine-2,4-diamine]",< 0.05
2,"CNc1nc(Nc2cccc3[nH]ncc23)ncc1C(F)(F)F [Example 21, N2-(1H-indazol-4-yl)-N4-methyl-5-(trifluoromethyl)pyrimidine-2,4-diamine]",< 0.05
3,"CNc1nc(Nc2c(F)ccc3[nH]ncc23)ncc1C(F)(F)F [Example 22, N2-(5-fluoro-1H-indazol-4-yl)-N4-methyl-5-(trifluoromethyl)pyrimidine-2,4-diamine]",0.05 to 0.2
4,"CNc1nc(Nc2c(C)ccc3[nH]ncc23)ncc1C(F)(F)F [Example 23, N4-methyl-N2-(5-methyl-1H-indazol-4-yl)-5-(trifluoromethyl)pyrimidine-2,4-diamine]",0.05 to 0.2
5,"CNc1nc(Nc2cc(C)cc3[nH]ncc23)ncc1C(F)(F)F [Example 24, N4-methyl-N2-(6-methyl-1H-indazol-4-yl)-5-(trifluoromethyl)pyrimidine-2,4-diamine]",< 0.05
6,"CNc1nc(Nc2cc(F)cc3[nH]ncc23)ncc1C(F)(F)F [Example 25, N2-(6-fluoro-1H-indazol-4-yl)-N4-methyl-5-(trifluoromethyl)pyrimidine-2,4-diamine]",< 0.05
7,"CNc1nc(Nc2ccc(C)c3[nH]ncc23)ncc1C(F)(F)F [Example 26, N4-methyl-N2-(7-methyl-1H-indazol-4-yl)-5-(trifluoromethyl)pyrimidine-2,4-diamine]",< 0.05
8,"CNc1nc(Nc2ccc(OC)c3[nH]ncc23)ncc1C(F)(F)F [Example 28, N2-(7-methoxy-1H-indazol-4-yl)-N4-methyl-5-(trifluoromethyl)pyrimidine-2,4-diamine]",< 0.05
9,"CNc1nc(Nc2cccc3c2cnn3C)ncc1C(F)(F)F [Example 29, N4-methyl-N2-(1-methyl-1H-indazol-4-yl)-5-(trifluoromethyl)pyrimidine-2,4-diamine]",< 0.05
10,"CNc1nc(Nc2cccc3c2cnn3CC#N)ncc1C(F)(F)F [Example 30, 2-(4-((4-(methylamino)-5-(trifluoromethyl)pyrimidin-2-yl)amino)-1H-indazol-1-yl)acetonitrile]",< 0.05
11,"CNc1nc(Nc2cccc3c2cnn3C(C)(C)C#N)ncc1C(F)(F)F [Example 31, 2-methyl-2-(4-((4-(methylamino)-5-(trifluoromethyl)pyrimidin-2-yl)amino)-1H-indazol-1-yl)propanenitrile]",< 0.05
12,"CNc1nc(Nc2cccc3c2cnn3C(=O)N2CCOCC2)ncc1C(F)(F)F [Example 32, (4-((4-(methylamino)-5-(trifluoromethyl)pyrimidin-2-yl)amino)-1H-indazol-1-yl)(morpholino)methanone]",< 0.05
13,"CNc1nc(Nc2cccc3c2cnn3S(=O)(=O)C2CC2)ncc1C(F)(F)F [Example 33, N2-(1-(cyclopropylsulfonyl)-1H-indazol-4-yl)-N4-methyl-5-(trifluoromethyl)pyrimidine-2,4-diamine]",< 0.05
14,"CNc1nc(Nc2cccc3nn(C)cc23)ncc1C(F)(F)F [Example 34, N4-methyl-N2-(2-methyl-2H-indazol-4-yl)-5-(trifluoromethyl)pyrimidine-2,4-diamine]",< 0.05
15,"CNc1nc(Nc2ccc(OC)c3nn(C)cc23)ncc1C(F)(F)F [Example 35, N2-(7-methoxy-2-methyl-2H-indazol-4-yl)-N4-methyl-5-(trifluoromethyl) pyrimidine-2,4-diamine]",< 0.05
16,"CNc1nc(Nc2c(C)ccc3c2cnn3C)ncc1C(F)(F)F [Example 36, N2-(1,5-dimethyl-1H-indazol-4-yl)-N4-methyl-5-(trifluoromethyl)pyrimidine-2,4-diamine]",0.05 to 0.2
17,"CNc1nc(Nc2c(OC)ccc3c2cnn3C)ncc1C(F)(F)F [Example 37, N2-(5-methoxy-1-methyl-1H-indazol-4-yl)-N4-methyl-5-(trifluoromethyl) pyrimidine-2,4-diamine]",< 0.05
18,"CNc1nc(Nc2c(F)ccc3c2cnn3C)ncc1C(F)(F)F [Example 38, N2-(5-fluoro-1-methyl-1H-indazol-4-yl)-N4-methyl-5-(trifluoromethyl) pyrimidine-2,4-diamine]",0.05 to 0.2
19,"CNc1nc(Nc2c(C)ccc3nn(C)cc23)ncc1C(F)(F)F [Example 39, N2-(2,5-dimethyl-2H-indazol-4-yl)-N4-methyl-5-(trifluoromethyl)pyrimidine-2,4-diamine]",≥ 0.2

# Reference: patent US20240174647A1 (NEURON23, INC., priority 2022, published 2024)
